pKi: −log10 of the molar value.
Assay: Inhibition of Plasmodium falciparum recombinant carbonic anhydrase

Row | SMILES | pKi
1 | NS(=O)(=O)c1ccccc1NS(=O)(=O)c1c(F)c(F)c(F)c(F)c1F | 5.51
2 | NS(=O)(=O)c1nnc(NS(=O)(=O)C(F)(F)C(F)(F)C(F)(F)C(F)(F)C(F)(F)C(F)(F)C(F)(F)C(F)(F)F)s1 | 6.72
3 | NS(=O)(=O)c1ccc(NC(=S)NC(=O)Nc2ccc(Cl)c(Cl)c2)cc1 | 6.74
4 | NS(=O)(=O)c1ccc(CCNC(=O)c2cc3ccccc3oc2=O)cc1 | 4.88
5 | NS(=O)(=O)c1ccc(CNC(=O)c2cc3ccccc3oc2=O)cc1 | 5.30
6 | NS(=O)(=O)c1ccc(NC(=O)c2cc3ccccc3oc2=O)cc1 | 5.24
7 | NS(=O)(=O)c1nnc(NC(=O)c2c(F)c(F)c(F)c(F)c2F)s1 | 5.46
8 | COC(=O)NS(=O)(=O)c1ccc(NC(=S)Nc2ccc(S(N)(=O)=O)cc2)cc1 | 5.34
9 | COc1ccc2oc(=O)cc(CC(=O)Nc3ccccc3S(N)(=O)=O)c2c1 | 5.84
10 | COc1ccc2oc(=O)cc(CC(=O)Nc3cccc(S(N)(=O)=O)c3)c2c1 | 5.34
11 | COc1ccc2oc(=O)cc(CC(=O)NNc3ccc(S(N)(=O)=O)cc3)c2c1 | 5.46
12 | COc1ccc2oc(=O)cc(CC(=O)c3cc(C(F)(F)F)c(S(N)(=O)=O)cc3S(N)(=O)=O)c2c1 | 5.60
13 | NS(=O)(=O)c1ccc(/N=C/c2ccc(Br)c3ccccc23)cc1 | 5.38
14 | NS(=O)(=O)c1ccc(NC(=S)NC(=O)Nc2ccc(CC(Cl)Cl)cc2)cc1 | 6.12
15 | NS(=O)(=O)c1ccc(NC(=S)NC(=O)Nc2ccc(Cl)cc2)cc1 | 6.49
16 | Cc1cc(Cl)cc(C)c1NC(=O)NC(=S)Nc1ccc(S(N)(=O)=O)cc1 | 6.22
17 | Cc1cc(NC(=O)NC(=S)Nc2ccc(S(N)(=O)=O)cc2)c(Cl)c(C)c1Cl | 6.29
18 | CCc1c(Cl)ccc(NC(=O)NC(=S)Nc2ccc(S(N)(=O)=O)cc2)c1Cl | 6.33
19 | CC(Cl)(Cl)c1ccc(NC(=O)NC(=S)Nc2ccc(S(N)(=O)=O)cc2)cc1 | 6.34
20 | NS(=O)(=O)c1ccc(NC(=S)NC(=O)Nc2cccc(F)c2)cc1 | 6.37
21 | Cc1cc(F)c(C)c(NC(=O)NC(=S)Nc2ccc(S(N)(=O)=O)cc2)c1 | 6.29
22 | Cc1c(NC(=O)NC(=S)Nc2ccc(S(N)(=O)=O)cc2)cn2ncccc12 | 6.36
23 | Cc1ccc(NC(=O)NC(=S)Nc2ccc(S(N)(=O)=O)cc2)s1 | 6.30
24 | CC(C)(O)Nc1ccc(S(N)(=O)=O)cc1 | 5.65
25 | CC(F)(F)Nc1ccc(S(N)(=O)=O)cc1 | 6.13

Row | SMILES | pKi
26 | NS(=O)(=O)c1ccc(Nc2cscn2)cc1 | 6.63
27 | NS(=O)(=O)c1ccc(Nc2ncsc2Cl)cc1 | 6.79
28 | NS(=O)(=O)c1ccc(Nc2nocc2Cl)cc1 | 6.79
29 | NS(=O)(=O)c1ccc(Nc2ncc(Cl)s2)cc1 | 6.79
30 | Cc1cc(C)cc(N(C(=O)Nc2ccccc2S(N)(=O)=O)c2ccccc2)c1 | 5.39
31 | Cc1ccc(C)c(N(C(=O)Nc2ccccc2S(N)(=O)=O)c2ccccc2)c1F | 5.48
32 | NS(=O)(=O)c1ccccc1NC(=O)N(c1ccccc1)c1ccc(F)cc1 | 5.65
33 | NS(=O)(=O)c1ccccc1NC(=O)N(c1ccccc1)c1cccc(Cl)c1 | 5.78
34 | COc1ccc2cncc(CC(=O)Nc3ccccc3S(N)(=O)=O)c2c1 | 5.57
35 | COc1cc(CC(=O)Nc2ccccc2S(N)(=O)=O)c2ccccc2c1Cl | 5.37
36 | NS(=O)(=O)c1nnc(NC(=S)NC(=O)Nc2ccccc2)s1 | 5.17
37 | NS(=O)(=O)c1cc(S(N)(=O)=O)c(C(F)(F)F)cc1NC(=O)c1cc2ccccc2oc1=O | 5.04
38 | NS(=O)(=O)c1ccccc1NC(=O)c1cc2ccccc2oc1=O | 4.73
39 | NS(=O)(=O)c1ccc(NC(=O)Nc2ccc(Cl)c(Cl)c2)cc1 | 5.25
40 | NS(=O)(=O)c1ccc(NNC(=O)c2cc3ccccc3oc2=O)cc1 | 5.39
41 | CCN(CC)C(=S)SNc1ccc(S(N)(=O)=O)cc1 | 5.52
42 | CCN(CC)C(=S)SNCc1ccc(S(N)(=O)=O)cc1 | 5.08
43 | NS(=O)(=O)c1ccccc1NC(=O)N(c1ccccc1)c1ccccc1 | 5.70
44 | NS(=O)(=O)c1ccc(CNC(=O)N(c2ccccc2)c2ccccc2)cc1 | 5.22
45 | NC(=S)Nc1ccc(S(N)(=O)=O)cc1 | 5.68
46 | NS(=O)(=O)c1ccc(NS(=O)(=O)c2ccc(NC(=O)N(c3ccccc3)c3ccccc3)cc2)cc1 | 4.78
47 | NS(=O)(=O)c1ccc(NC(=O)c2ccc(S(N)(=O)=O)cc2)cc1 | 5.52
48 | Cn1nc(S(N)(=O)=O)s/c1=N/C(=O)c1c(F)c(F)c(F)c(F)c1F | 5.16
49 | NS(=O)(=O)c1nnc(NS(=O)(=O)c2c(F)c(F)c(F)c(F)c2F)s1 | 5.59
